Data set [1] deals with SP-degrading / SP1–9-producing activity of spinal cord membrane lysates. As to the kind of experiment: SP degradation in spinal cord membrane lysates with metalloprotease inhibitors. Type of data set: biochemical, mouse. Particulars: membrane lysate 1 mg/mL, 30 min pre-incubation 37°C, SP 100 μM, 1 h 37°C, LC-MS, N = 4; for Inhibition of SP degradation (in words): inhibitor 100 μM (TIMP2 4 μM). Here is the method:
All inhibitors were present at 100 μM except for TIMP2, which was present at 4 μM. After the pre-incubation with each inhibitor, either SP or SP1–9 was added to 100 μM final concentration. The reactions proceeded at 37°C for 1 h. Dried samples were dissolved in 0.1% formic acid (aq) and analyzed by LC-MS/MS for SP or SP1–9-degrading activity.
(§1) For LC-MS analysis, an Agilent 6220 LC-ESI-TOF instrument was used in the positive mode. A Bio-Bond C18 (5 μm, 150×2.1 mm) column was used together with a precolumn (C18, 3.5 μm, 2×20 mm). Following injection of 25 μL of 5 μM solutions, the samples were trapped at an isocratic flow rate of 0.1 ml/min for five minutes and eluted at a flow rate of 0.25 mL/min via a mobile phase gradient of 2–100% B in 40 min (Mobile Phase A: 0.1% formic acid in water, Mobile Phase B: 0.1% formic acid in acetonitrile). MS analysis was performed with an electrospray ionization (ESI) source. The capillary voltage was set at 4.0 kV and the fragmentor voltage to 100 V. The drying gas temperature was 350°C, the drying gas flow rate was 10 L/min, and the nebulizer pressure was 45 psi. Data was collected in the centroid mode using a mass range of 100–500 Da. The peptides were analyzed by mass extraction of the +3 charge state.

The conditions of data set [2]: in vivo; cited from earlier work.
For data set [3], the system named is SP-degrading activity of spinal cord membrane lysates. As to the kind of experiment: SP degradation in spinal cord membrane lysates with general enzyme class inhibitors. In kind it is biochemical, mouse. Particulars: membrane lysate 1 mg/mL, 30 min pre-incubation 37°C, SP 100 μM, 1 h 37°C; 1 mM o-phenanthroline, 10 μM pepstatin A, 1 mM PMSF; LC-MS, N = 4. Here is the method:
The membrane fraction of spinal cord lysates (1 mg/mL) were pre-incubated at 37°C for 30 minutes separately with each of the following inhibitors (N = 4): 10 μM E-64 (cysteine protease), 1 mM iodoacetamide (cysteine protease), 1 mM o-phenanthroline (metalloprotease), 10 μM pepstatin A (aspartyl protease), 1 mM phenylmethylsulfonyl fluoride (PMSF, serine protease), 1 mM diisopropylfluorophosphate (serine protease), and vehicle (PBS with DMSO for 5% DMSO final concentration in reaction). After the pre-incubation with each inhibitor, SP was added to 100 μM final concentration. The reactions proceeded at 37°C for 1 h. Dried samples were dissolved in 0.1% formic acid (aq) and analyzed by LC-MS/MS for SP-degrading activity (i.e. formation of SP1–7 and SP1–9) using the method outlined in “MALDI-TOF MS and LC-MS/MS analysis of in vitro peptides” section.
as §1

The nature of data set [4]: N-terminal SP fragment formation in spinal cord soluble and membrane lysates. The following applies: for Degradation product of SP1–9 in spinal cord lysates: SP1–9 100 μM incubated in spinal cord lysate, 37°C, 1 h, LC-MS (Fig. S3). In kind it is in vitro ADME, mouse. The procedure:
Three mouse spinal cords were dounce homogenized in 1.1 mL phosphate buffered saline (PBS) on ice and then sonicated for 15 s at 4°C. Tissue debris was separated by centrifuging the sample at 5,000×g for 20 min at 4°C. The soluble fraction was collected after ultracentrifugation of the sample at 55,000×g for 1 h at 4°C. The membrane pellet that remained was washed 3x with 600 μL PBS. The pellet was then suspended in 100 μL PBS by sonication for 5 s at 4°C. The sample was ultracentrifugation at 55,000×g for 1 h at 4°C and the supernatant was separated as a wash membrane sample. The pellet was suspended in 100 μL of 1 mM sodium deoxycholate (Alfa Aesar) by sonication for 5 s at 4°C then stirred for 30 min at 4°C. Ultracentrifugation of the sample at 55,000×g for 1 h at 4°C separated the supernatant as a 1 mM deoxycholate-solubilized membrane fraction. The remaining pellet was washed 3x with 600 μL 1 mM deoxycholate solution. The pellet was subsequently suspended in 4, 12, and 24 mM deoxycholate following the same cycle. The final pellet was suspended in 100 μL PBS. The protein content in the soluble and membrane lysates was quantified by the Bradford assay. […] The reactions were quenched with neat formic acid and speed vac dried. The samples were dissolved in 0.1% formic acid (aq) and analyzed by MALDI-TOF MS for SP-degrading activity (i.e. formation of SP1–7 and SP1–9) using the method outlined in “MALDI-TOF MS and LC-MS/MS analysis of in vitro peptides” section. […]
MALDI-TOF MS was performed with α-cyano-4-hydroxycinnamic acid as the matrix using 2 μL of a 50 μM reconstituted degradation reaction solution (based on initial SP quantities). […]
To determine the candidate proteolytic pathway or pathways for SP degradation in the spinal cord, we separated tissue lysates from mouse spinal cords into membrane and soluble fractions, incubated them with full-length SP for varying lengths of time (15, 60, 240 min) and then analyzed the quenched reactions by MALDI mass spectrometry to identify any SP fragments that had been produced. […]

In data set [5] the test system is NEP. As to the kind of experiment: SP degradation and SP levels in WT and Nep–/– spinal cord. Type of data set: in vitro ADME, mouse. The following applies: 1 mg/mL WT and Nep–/– spinal cord membrane lysates, LC-MS/MS. Here is the method:
The levels of SP in WT and Nep^–/– mice spinal cord tissue (N = 4) were compared by IDMS using Top 6 MS/MS as described previously. The degradation of SP was compared in 1 mg/mL WT and Nep^–/– mice spinal cord membrane lysates using LC-MS/MS analysis following the above method.

In data set [6] the test system is ACE. Particulars: cited from earlier work.
In data set [7] the test system is NEP. The following applies: cited from earlier work.
The subject of data set [8] is MMP9. Particulars: cited from earlier work.
In data set [9] the test system is ECE-1. The following applies: cited from earlier work.
In data set [10] the test system is ECE-2. Particulars: cited from earlier work.
For data set [11], the system named is Meprin 1A. Particulars: cited from earlier work.
Data set [12] has as its system Pitrilysin. Particulars: cited from earlier work.
A short description of data set [13]: soluble fraction of mouse spinal cord lysates (1 mg/mL). Particulars: mouse (C57BL/6), 37°C, up to 240 min.
Data set [14] can be described thus: membrane fraction of mouse spinal cord lysates (1 mg/mL). The following applies: mouse (C57BL/6), 37°C, up to 240 min.
Data set [15] is described as follows: mouse spinal cord tissue (endogenous peptides, boiled and extracted). The following applies: mouse (C57BL/6).
The nature of data set [16]: membrane fraction of spinal cord lysates (1 mg/mL) with class-selective inhibitors. Particulars: mouse, 37°C, up to 1 h.
A short description of data set [17]: membrane fraction of spinal cord lysates (1 mg/mL) with metalloprotease inhibitors. Particulars: mouse, 37°C, up to 1 h.
A short description of data set [18]: cell lysates with synthetic peptide; synthetic peptide introduced into a living tissue (pseudo-in vivo). Particulars: cited from earlier work.
Data set [19] can be described thus: membrane fraction of spinal cord lysates (1 mg/mL). The following applies: mouse (C57BL/6), 37°C, up to 1 h.

Here are results for 10 compounds from paper PMC3716696 (PLoS ONE, 2013).

Entries after “also recorded” stand apart in the source; their conditions may differ. Non-standard residues stand in square brackets, D forms with d. Residues, ends and D or L forms follow the SMILES beside them. *: point of attachment. Sta = CC(C)C[C@H](N)[C@@H](O)CC(=O)O; Isovaleryl = CC(C)CC(=O)*

As to `CNC(=O)[C@H](Cc1c[nH]c2ccccc12)NC(=O)[C@@H](CC(=O)NO)CC(C)C` [GM6001], the “Inhibition of SP degradation (in words)” value in [1] is given as “most effective compound at preventing SP degradation; also recorded: least amount of SP degradation”. Besides, in data set [1] (inhibitor 100 μM), the “Decrease in SP1–9 production compared to vehicle” value was “greater than 10 fold”, the “Increase in SP levels compared to vehicle” value is listed as roughly 2 fold and the “Inhibition of SP1–9 production (in words)” value is on record as “best inhibitor of SP1–9 production; also recorded: strongly inhibited; also recorded: potently blocks”. Moreover, the Bioavailability result in [2] is reported as “bioavailable”.
Take `c1cnc2c(c1)ccc1cccnc12` [O-phenanthroline]: in data set [3], the “Effect on SP1–7 production” value was “regulate SP1-7 production”, the “Inhibition of SP1–9 production” value is “most potent inhibitor of SP1–9 production; also recorded: strongest inhibitor of SP1–9 production” and the “Inhibition of SP degradation (SP levels vs vehicle)” value is listed as “most effective compound at inhibiting SP degradation; also recorded: twice as high as the vehicle control”.
The corresponding values for `O=S(=O)(F)Cc1ccccc1` [PMSF, phenylmethylsulfonyl fluoride] are “regulate SP1-7 production”, “small effect” and “Modest increases”.
With `N=C(N)NCCC[C@H](N)C(=O)N1CCC[C@H]1C(=O)N[C@@H](CCCCN)C(=O)N1CCC[C@H]1C(=O)N[C@@H](CCC(N)=O)C(=O)N[C@@H](CCC(N)=O)C(=O)N[C@@H](Cc1ccccc1)C(=O)N[C@@H](Cc1ccccc1)C(=O)NCC(=O)O` [SP1–9] (H-RPKPQQFFG-OH), the entries for the “Degradation product of SP1–9 in spinal cord lysates” value in data set [4] and in data set [4] (listed as SP 1–9) were “SP1–7 was produced” and “SP1–7 is produced”, respectively.
As for `CSCC[C@H](NC(=O)[C@H](CC(C)C)NC(=O)CNC(=O)[C@H](Cc1ccccc1)NC(=O)[C@H](Cc1ccccc1)NC(=O)[C@H](CCC(N)=O)NC(=O)[C@H](CCC(N)=O)NC(=O)[C@@H]1CCCN1C(=O)[C@H](CCCCN)NC(=O)[C@@H]1CCCN1C(=O)[C@@H](N)CCCN=C(N)N)C(N)=O` [SP, Substance P], the “SP fragments formed in soluble fraction of spinal cord lysate” value in [4] (pH 7.34) is “No discernable fragments”. Also, the “SP degradation in NEP+/+ vs NEP–/– spinal cord lysates” value in data set [5] is “no significant difference”.
Consider `CCCCC[C@H](CC(=O)NO)C(=O)N[C@H](C(=O)N1CCC[C@H]1CO)C(C)C` [actinonin], for which, in data set [1], the “Inhibition of SP degradation (in words)” value is listed as “could inhibit”. Besides, the “Inhibition of SP1–9 production (in words)” value in data set [1] (inhibitor 100 μM) is listed as “could inhibit”.
Regarding `CC(C)CC(=O)N[C@H](C(=O)N[C@H](C(=O)N[C@@H](CC(C)C)[C@@H](O)CC(=O)N[C@@H](C)C(=O)N[C@@H](CC(C)C)[C@@H](O)CC(=O)O)C(C)C)C(C)C` [pepstatin A] (Isovaleryl-VV[Sta]A[Sta]-OH), in [3], the “Effect on SP1–7 production” value is given as “regulate SP1-7 production”, the “Inhibition of SP1–9 production” value is listed as “small effect” and the “Inhibition of SP degradation (SP levels vs vehicle)” value is listed as “Modest increases”.
For `CC(C)C[C@H](NP(=O)(O)O[C@@H]1O[C@@H](C)[C@H](O)[C@@H](O)[C@H]1O)C(=O)N[C@@H](Cc1c[nH]c2ccccc12)C(=O)O` [phosphoramidon], the “Inhibition of SP degradation (in words)” value in data set [1] is on record as “could inhibit”. In addition, the “Inhibition of SP1–9 production (in words)” value is on record as “could inhibit” in [1] (inhibitor 100 μM) and “slows SP1–9 production” in data set [1] (inhibitor 100 μM, listed as Phosphoramidon).
As to H2N-RPKPQQFFGLM-CONH2, the cleaved bond entry in data set [6], in data set [7], in [8], in data set [9], in data set [10] and in [11] was “G9-L10” each time. For the same compound, the cleaved bond entry in data set [12] is “G9-L10”; in data set [14], “G9-L10, major”; in [15], “G9-L10, major”; in [16], “G9-L10, major”; in data set [17], “G9-L10, major”. The not cleaved entry in [13] is “No discernable fragments appeared in the soluble fraction”. Further, the fragment found result in [14] was “SP1–10; also recorded: SP1–8; also recorded: SP1–7; also recorded: SP3-11”; in data set [15] it was “SP1–7, major”; in data set [16], “SP1–7”; in data set [18], “SP1–9; also recorded: SP1–8; also recorded: SP1–7; also recorded: SP5–11; also recorded: SP6–11; also recorded: SP7–11; also recorded: SP8–11”.
Regarding H-RPKPQQFFG-OH, the fragment found entry in data set [19] is recorded as “SP1–7”.
